These results are taken from US20260138961A1, “MODULATORS OF MITOCHONDRIAL DNA REPLICATION” (Pretzel Therapeutics, Inc., priority 2022, published 2026).

In this assay the target is T1, POLγA:Y955C (Homo sapiens, UniProt P54098, Y955C).
T1 sequence (P54098 1-1239 Y955C): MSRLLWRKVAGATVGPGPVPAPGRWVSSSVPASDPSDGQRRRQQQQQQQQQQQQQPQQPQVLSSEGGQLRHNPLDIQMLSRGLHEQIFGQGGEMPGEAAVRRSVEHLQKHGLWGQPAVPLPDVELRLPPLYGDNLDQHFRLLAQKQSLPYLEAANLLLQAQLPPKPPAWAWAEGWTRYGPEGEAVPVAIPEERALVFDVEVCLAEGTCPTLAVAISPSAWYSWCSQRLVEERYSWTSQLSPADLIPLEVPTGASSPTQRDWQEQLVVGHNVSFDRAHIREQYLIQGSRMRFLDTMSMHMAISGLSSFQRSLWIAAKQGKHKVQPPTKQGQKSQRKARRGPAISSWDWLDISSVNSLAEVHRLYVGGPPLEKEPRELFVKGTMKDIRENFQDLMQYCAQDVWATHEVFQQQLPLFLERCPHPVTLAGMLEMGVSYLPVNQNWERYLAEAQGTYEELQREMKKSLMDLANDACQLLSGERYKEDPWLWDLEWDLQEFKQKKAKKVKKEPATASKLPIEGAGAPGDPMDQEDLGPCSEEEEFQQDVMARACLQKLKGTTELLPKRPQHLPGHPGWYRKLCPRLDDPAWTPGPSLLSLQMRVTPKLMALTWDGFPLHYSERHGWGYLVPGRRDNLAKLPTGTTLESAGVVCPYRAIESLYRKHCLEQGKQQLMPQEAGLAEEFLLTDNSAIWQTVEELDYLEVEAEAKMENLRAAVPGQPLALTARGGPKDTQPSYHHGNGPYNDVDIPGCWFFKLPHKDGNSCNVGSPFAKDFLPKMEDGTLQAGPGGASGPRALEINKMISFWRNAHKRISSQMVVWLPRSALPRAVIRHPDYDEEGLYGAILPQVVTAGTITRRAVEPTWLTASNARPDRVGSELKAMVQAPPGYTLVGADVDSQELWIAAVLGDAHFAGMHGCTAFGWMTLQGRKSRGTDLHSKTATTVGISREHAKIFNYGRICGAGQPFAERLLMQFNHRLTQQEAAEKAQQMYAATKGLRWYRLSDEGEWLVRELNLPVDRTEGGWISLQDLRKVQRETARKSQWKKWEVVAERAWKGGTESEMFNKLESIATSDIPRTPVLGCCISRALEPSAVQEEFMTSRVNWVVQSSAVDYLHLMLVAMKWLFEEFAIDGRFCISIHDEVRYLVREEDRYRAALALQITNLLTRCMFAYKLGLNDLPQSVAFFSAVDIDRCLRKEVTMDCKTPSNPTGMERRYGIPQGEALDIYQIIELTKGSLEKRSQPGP
T1 sequence (Q9UHN1 1-485 partner): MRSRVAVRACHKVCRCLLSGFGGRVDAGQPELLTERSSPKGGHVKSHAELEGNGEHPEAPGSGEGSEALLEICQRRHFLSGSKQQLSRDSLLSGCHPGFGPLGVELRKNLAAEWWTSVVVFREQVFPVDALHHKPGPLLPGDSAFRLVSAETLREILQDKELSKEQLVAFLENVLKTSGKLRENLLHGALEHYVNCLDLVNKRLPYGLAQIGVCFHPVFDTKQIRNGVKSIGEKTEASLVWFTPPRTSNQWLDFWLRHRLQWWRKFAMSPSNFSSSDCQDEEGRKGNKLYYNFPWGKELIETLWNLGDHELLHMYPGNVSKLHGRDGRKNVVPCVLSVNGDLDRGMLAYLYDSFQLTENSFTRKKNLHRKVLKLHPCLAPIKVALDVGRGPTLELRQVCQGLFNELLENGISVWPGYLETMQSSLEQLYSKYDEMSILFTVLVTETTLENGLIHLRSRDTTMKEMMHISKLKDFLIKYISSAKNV
Description: DNA polymerization assay, POLγA:Y955C mutant. As to conditions: stimulation of polymerase activity, primed M13mp18 ssDNA, 37° C. 2 hours. The class given is biochemical. How it is done:
DNA Polymerization Assay to Monitor Effects on Human Wildtype POLγ and Four Disease-Causing Mutant Variants of Human POLγ.
The ability of small molecules to stimulate the polymerase activity of POLγ was analyzed in a quantitative fluorescence SYBR Green I assay with fluorescence intensity (FI) readout.
In the presence of dNTPs, wild type human POLγ and mutant derivatives thereof were incubated with single-stranded, circular M13mp18 ssDNA hybridized to a short DNA oligonucleotide that functions as a primer for initiation of DNA synthesis. POLγ and mutant derivatives thereof will extend the primer and use the M13mp18 molecule as a template to synthesize long stretches of double-stranded DNA. SYBR Green I, which is a double-stranded DNA-binding dye, was used to quantify formation of double-stranded DNA in the reaction. When bound to double-stranded DNA, SYBR Green I fluorescence increases by up to 100-fold.
The assay was performed in the 384-well plate format. Upon addition of compounds, changes in double-stranded DNA synthesis activity can be monitored by following effects on fluorescent intensity.
The reactions also contained the accessory POLγB subunit, and the human mitochondrial single-stranded DNA binding protein (mtSSB).
The DNA template mixture used in the assay contained 0.5 nM primed M13 mp18 ssDNA, 400 nM mtSSB, 0.1 mM Tris-HCl (pH 8.0), 0.1 mM dNTP, 10 mM MgCl2, 0.1 mg/mL BSA, 1 mM TCEP solution, and 0.02% Triton X-100. The DNA template mixture for the wild type protein contained either 100 μM dNTP, 1 μM dNTP, or 0.1 μM dNTP, designated in Table 2 as 100 μM, 1 μM, and 0.1 μM, respectfully.
Microplates with compounds (0.1 μL in each well) to be tested in the assay were prepared from 10 mM compound stocks in 100% DMSO, and equal amounts of DMSO without any compound were added to positive and negative control wells.
The protein mixture was dispensed (5 μL into each well) into compound plates and incubated at 37° C. for 15 minutes. After incubation, 5 μL of the DNA template mixture was dispensed into each well. The plates were then incubated at 37° C. for 2 hours.
During incubation, a combined stop buffer and detection reagent solution was prepared. The buffer contained 25 mM EDTA (pH 8.0), 0.02% Triton X-100, and SYBR Green I [Invitrogen] diluted 10,000× (for fluorescent readout). EDTA will stop the enzymatic reaction by chelating magnesium ions.
As for `Cc1cc(S(=O)(=O)Nc2cccc(C(=O)N(C)C(C)CO)c2)c(C)cc1Cl` (single isomer, unassigned) [Example 14, 3-((4-chloro-2,5-dimethylphenyl)sulfonamido)-N-(1-hydroxypropan-2-yl)-N-methylbenzamide], the AC50 (as a rule, the midpoint of the concentration-response curve, whichever way the signal moves) turned out to be 2000 nM.

For the molecule `Cc1ccc(C)c(S(=O)(=O)Nc2cccc(C(=O)N3CCCCC3C#N)c2)c1` (centres unmarked) [Example 2, N-(3-(2-cyanopiperidine-1-carbonyl)phenyl)-2,5-dimethylbenzenesulfonamide], the AC50 is 1000 nM.

The molecule `Cc1ccc(C)c(S(=O)(=O)Nc2cccc(C(=O)N3CCCCC3)c2)c1` [Example 3, 2,5-dimethyl-N-(3-(piperidine-1-carbonyl)phenyl)benzene sulfonamide] had an AC50 of 5000 nM.

Take `Cc1ccc(C)c(S(=O)(=O)Nc2cccc(C(=O)NCC3CC3)c2)c1` [Example 4, N-(cyclopropylmethyl)-3-((2,5-dimethylphenyl)sulfonamido)benzamide]: the activity was half-maximal at 11000 nM (AC50).

`Cc1ccc(C)c(S(=O)(=O)Nc2cccc(C(=O)N3CCCC[C@H]3C)c2)c1` [Example 5, (R)-2,5-dimethyl-N-(3-(2-methylpiperidine-1-carbonyl)phenyl)benzenesulfonamide] yielded an AC50 of 3000 nM. Against the preceding molecule, the AC50 is about 3.7-fold lower.

For the molecule `Cc1ccc(C)c(S(=O)(=O)Nc2cccc(C(=O)N3CCCC[C@@H]3C)c2)c1` [Example 6, (S)-2,5-dimethyl-N-(3-(2-methylpiperidine-1-carbonyl)phenyl)benzenesulfonamide], half-maximal activity (AC50) was put at 5000 nM.

For the molecule `Cc1ccc(C)c(S(=O)(=O)Nc2cccc(C(=O)N3CCOCC3C#N)c2)c1` (centres unmarked) [Example 7, N-(3-(3-cyanomorpholine-4-carbonyl)phenyl)-2,5-dimethylbenzenesulfonamide], the AC50 turned out to be 1000 nM.

`Cc1ccc(C)c(S(=O)(=O)Nc2cccc(C(=O)N[C@@H](C)C3CC3)c2)c1` [Example 8, (S)-N-(1-cyclopropylethyl)-3-((2,5-dimethylphenyl)sulfonamido)benzamide] registered an AC50 of 3000 nM. This AC50 lies about 3-fold higher than the previous one.

`Cc1cc(S(=O)(=O)Nc2cccc(C(=O)N3CCCC[C@H]3C)c2)c(C)cc1Cl` [Example 9, (R)-4-chloro-2,5-dimethyl-N-(3-(2-methylpiperidine-1-carbonyl)phenyl)benzenesulfonamide] returned an AC50 of 2000 nM.

In turn, `Cc1cc(S(=O)(=O)Nc2cccc(C(=O)N3CCC[C@H]3C)c2)c(C)cc1Cl` [Example 10, (R)-4-chloro-2,5-dimethyl-N-(3-(2-methylpyrrolidine-1-carbonyl)phenyl)benzenesulfonamide] showed an AC50 of 400 nM.

The molecule `Cc1cc(S(=O)(=O)Nc2cccc(C(=O)NCc3ccccc3)c2)c(C)cc1Cl` [Example 11, N-benzyl-3-((4-chloro-2,5-dimethylphenyl)sulfonamido)benzamide] gave an AC50 of 4000 nM.

`Cc1cc(S(=O)(=O)Nc2cccc(C(=O)N(C)C)c2)c(C)cc1Cl` [Example 12, 3-((4-chloro-2,5-dimethylphenyl)sulfonamido)-N,N-dimethylbenzamide] registered an AC50 of 2000 nM.

The molecule `Cc1cc(S(=O)(=O)Nc2cc(F)cc(C(=O)N3CCC[C@H]3C)c2)c(C)cc1Cl` [Example 13, (R)-4-chloro-N-(3-fluoro-5-(2-methylpyrrolidine-1-carbonyl)phenyl)-2,5-dimethylbenzenesulfonamide] returned an AC50 of 2000 nM.

Regarding `Cc1cc(S(=O)(=O)Nc2cccc(-c3nccs3)c2)c(C)cc1Cl` [Example 16, 4-chloro-2,5-dimethyl-N-(3-(thiazol-2-yl)phenyl)benzenesulfonamide], half-maximal activity (AC50) was put at 800 nM.

In turn, `Cc1cc(S(=O)(=O)Nc2cccc(-c3ncco3)c2)c(C)cc1Cl` [Example 17, 4-chloro-2,5-dimethyl-N-(3-(oxazol-2-yl)phenyl)benzenesulfonamide] showed an AC50 of 800 nM. This lies in the sub-micromolar range.

`Cc1cc(S(=O)(=O)Nc2cccc(-c3ccn(C)n3)c2)c(C)cc1Cl` [Example 18, 4-chloro-2,5-dimethyl-N-(3-(1-methyl-1H-pyrazol-3-yl)phenyl)benzenesulfonamide] returned an AC50 of 3000 nM.

Turning to `Cc1cc(S(=O)(=O)Nc2cccc(-c3nccn3C)c2)c(C)cc1Cl` [Example 19, 4-chloro-2,5-dimethyl-N-(3-(1-methyl-1H-imidazol-2-yl)phenyl)benzenesulfonamide], the AC50 worked out at 500 nM. Compared with the last molecule, the AC50 is about 6-fold lower.

`Cc1cc(S(=O)(=O)Nc2cccc(-c3ncc(C#N)s3)c2)c(C)cc1Cl` [Example 96, 4-chloro-N-(3-(5-cyanothiazol-2-yl)phenyl)-2,5-dimethylbenzenesulfonamide]: the AC50 was found to be 50000 nM.

In the case of `Cc1cnc(-c2ccc(C)c(NS(=O)(=O)c3cc(C)c(Cl)cc3C)c2)s1` [Example 98, 4-chloro-2,5-dimethyl-N-(2-methyl-5-(5-methylthiazol-2-yl)phenyl)benzenesulfonamide], the AC50 was more than 10000 nM.

Molecule `Cc1cnc(-c2ccc(Cl)c(NS(=O)(=O)c3cc(C)c(Cl)cc3C)c2)s1` [Example 102, 4-chloro-N-(2-chloro-5-(5-methylthiazol-2-yl)phenyl)-2,5-dimethylbenzenesulfonamide] gave an AC50 of more than 100000 nM.

Turning to `Cc1cnc(-c2cc(NS(=O)(=O)c3cc(C)c(Cl)cc3C)ccc2C)s1` [Example 103, 4-chloro-2,5-dimethyl-N-(4-methyl-3-(5-methylthiazol-2-yl)phenyl)benzenesulfonamide], the AC50 was 9000 nM.

Turning to `Cc1cc(S(=O)(=O)Nc2ccc3c(c2)CC(=O)N3)c(C)cc1Cl` [Example 185, 4-chloro-2,5-dimethyl-N-(2-oxoindolin-5-yl)benzenesulfonamide], the activity was half-maximal at 2000 nM (AC50).

As for “(R)-2,5-dimethyl-N-(3-(3-methylmorpholine-4-carbonyl)phenyl)benzenesulfonamide [Example 1]”, the AC50 amounted to 2000 nM.
